Experimental data as given in patent publication US8609698B2, “Substituted dipyridyl-dihydropyrazolones and use thereof” (Bayer Intellectual Property GmbH, priority 2006, dated 2013).
Where a name gives a salt, the structure may show the parent alone.

target: HIF prolyl hydroxylase; test: Inhibition of the activity of HIF prolyl hydroxylase (VBC complex binding test); assay type: biochemical
Excerpt: 1. In Vitro Tests for Determination of the Activity and Selectivity of HIF Prolyl 4-Hydroxylase Inhibitors 1.a) Inhibition of the Activity of HIF Prolyl Hydroxylase:
Hydroxylated HIF bonds specifically to the von Hippel-Lindau protein-elongin B-elongin C complex (VBC complex). This interaction occurs only if HIF is hydroxylated on a conserved prolyl radical. It is the basis for the biochemical determination of HIF prolyl hydroxylase activity.
A clear 96-well microtiter plate coated with NeutrAvidin HBC (Pierce) is incubated with blocker casein for 30 minutes. The plate is then washed three times with 200 μl each time of wash buffer (50 mM Tris, pH 7.5, 100 mM NaCl, 10% (v/v) blocker casein, 0.05% (v/v) Tween 20) per well. […] This peptide serves as a substrate for the prolyl hydroxylation and is bonded to the microtiter plate. After incubation for 60 minutes, the plate is washed three times with wash buffer, incubated with 1 mM biotin in blocker casein for 30 minutes and then washed again three times with wash buffer.
To carry out the prolyl hydroxylase reaction, the peptide substrate bonded to the plate is incubated with a cell lysate containing prolyl hydroxylase for 1 to 60 minutes. The reaction takes place in 100 μl reaction buffer (20 mM Tris, pH 7.5, 5 mM KCl, 1.5 mM MgCl2, 1 μM-1 mM 2-oxoglutarate, 10 μM FeSO4, 2 mM ascorbate) at room temperature. The reaction mixture moreover contains various concentrations of the prolyl hydroxylase inhibitor to be tested. The test substance is preferably, but not exclusively, employed at concentrations of between 1 nM and 100 μM. The reaction is stopped by washing the plate three times with wash buffer.
For quantitative determination of the prolyl hydroxylation, a fusion protein which contains both thioredoxin from E. coli and the VBC complex in 80 μl bonding buffer (50 mM Tris, pH 7.5, 120 mM NaCl) is added. After 15 minutes, 10 μl of a solution of polyclonal anti-thioredoxin antibodies from rabbit in bonding buffer are added. After a further 30 minutes, 10 μl of a solution of anti-rabbit immunoglobulin coupled to horseradish peroxidase in bonding buffer are added. After incubation at room temperature for 30 minutes, the plate is washed three times with wash buffer in order to remove non-bonded VBC complex and antibodies. To determine the amount of bonded VBC complex, the plate is incubated with TMB for 15 minutes. The color reaction is ended by addition of 100 μl 1 M sulfuric acid. The amount of bonded VBC complex is determined by measurement of the optical density at 450 nm. It is proportional to the amount of hydroxylated proline in the peptide substrate.
Alternatively, a VBC complex coupled to europium (Perkin Elmer) can be used for detection of the prolyl hydroxylation. In this case, the amount of bonded VBC complex is determined by the fluorescence with respect to time. The use of VBC complex labeled with [^35S]-methionine is moreover possible. For this, the radioactively labeled VBC complex can be prepared by in vitro transcription-translation in reticulocyte lysate.

Row | SMILES | IC50 [nM]
1 | O=C(NCc1ccnc(-n2[nH]cc(-c3cccnc3)c2=O)c1)Nc1c(Cl)cccc1Cl [Example 65] | 900
2 | CC(C)(C)NC(=O)c1ccc(-n2[nH]cc(-c3cccnc3)c2=O)nc1 [Example 18, N-tert-Butyl-6-(5-oxo-4-pyridin-3-yl-2,5-dihydro-1H-pyrazol-1-yl)pyridine-3-carboxamide hydrochloride] | 910
3 | O=c1c(-c2cccnc2)c[nH]n1-c1ccc(Cn2cccc2)cn1 [Example 22, 4-Pyridin-3-yl-2-[5-(1H-pyrrol-1-ylmethyl)pyridin-2-yl]-1,2-dihydro-3H-pyrazol-3-one hydrochloride] | 3240
4 | COCCNCc1ccc(-n2[nH]cc(-c3cccnc3)c2=O)nc1 [Example 5, 2-(5-{[(2-Methoxyethyl)amino]methyl}pyridin-2-yl)-4-pyridin-3-yl-1,2-dihydro-3H-pyrazol-3-one hydrochloride] | 6300
5 | O=C(O)c1ccc(-n2[nH]cc(-c3cncc(Br)c3)c2=O)nc1 [Example 10, 6-[4-(5-Bromopyridin-3-yl)-5-oxo-2,5-dihydro-H-pyrazol-1-yl]pyridine-3-carboxylic acid hydrochloride] | 260
6 | Cc1ccnc(-n2[nH]cc(-c3cncc(C#N)c3)c2=O)c1 [Example 8, 5-[2-(4-Methylpyridin-2-yl)-3-oxo-2,3-dihydro-1H-pyrazol-4-yl]pyridine-3-carbonitrile hydrochloride] | 5200
7 | Cc1ccccc1NC(=O)OCc1ccc(-n2[nH]cc(-c3cccnc3)c2=O)nc1 [Example 80] | 1600
